Patent US5716964A, “Tetrazolyl substituted imidazo[1,2-a]pyridinylalkyl compounds for treatment of neurotoxic injury” (G.D. Searle & Co., priority 1995, dated 1998)
Structures can show the parent of a compound that is named as a salt. Each block holds one compound with its values, some of them ahead of it.

Tests used:
[1] = tested on: NMDA; settings: Murphy et al. 1987; cited from earlier work
[2] = target: AMPA (QUIS) receptor; assay: [3H]AMPA (QUIS) binding assay; settings: [3H]AMPA 10 nM, 100 mM KSCN, SPM, 0-4 °C, 10 min; read-out: Ki IC50 Binding, AMPA
Procedure: Synaptic plasma membranes (SPM) were prepared as previously described [Monahan, J. B. and Michel, J., "Identification and Characterization of an N-methyl-D-aspartate-specific L[^3 H]glutamate Recognition Site in Synaptic Plasma Membranes, J. Neurochem., 48, 1699-1708 (1987)]. The SPM were stored at a concentration of 10-15 mg/ml in 0.32M sucrose, 0.5 mM EDTA, 1mM MgSO4, 5 mM Tris/SO4, pH 7.4, under liquid nitrogen. The identity and purity of the subcellular fractions were confirmed by both electron microscopy and marker enzymes. Protein concentrations were determined by using a modification of the method of Lowry [Ohnishi, S. T. and Barr, J. K., "A Simplified Method of Quantitating Proteins Using the Biuret and Phenol Reagents", Anal. Biochem., 86, 193-197 (1978)]. The SPM were treated identically for the [^3 H]AMPA (QUIS), [^3 H]kainate and sodium-dependent L-[^3 H]-glumatate binding assays. The SPM were thawed at room temperature, diluted twenty-fold with 50 mM Tris/acetate, pH 7.4, incubated at 37° C. for 30 minutes, and centrifuged at 100,000 g for 15 minutes. The dilution, incubation, and centrifugation was repeated a total of three times. Prior to use in the NMDA specific L-[^3 H]-glutamate binding assay the SPM were thawed, diluted twenty fold with 50 mM Tris/acetate, pH 7.4 containing 0.04% (v/v) Triton X-100, incubated for 30 minutes at 37° C. and centrifuged as described above. The Triton X-100 treated membranes were washed with 50 mM Tris/acetate, pH 7.4 and centrifuged at 100,000 g for 15 minutes a total of four times. […] The basic procedure for the receptor subclass binding assays was similar. This general method involved adding the radioligand (12.5 nM L-[^3 H]glutamate; 0.5 nM [^3 H]kainate or 10 nM [^3 H]AMPA) to the appropriate concentration of the test compound and initiating the assay by the addition of ice cold synaptic plasma membranes (0.2-0.45 mg). The binding assays were performed in 1.5 mL centrifuge tubes with the total volume adjusted to 1.0 mL. Additions of test compounds were made in 50 mM Tris/acetate, pH 7.4 and incubations were carried out at 0°-4° C. The incubation time for the NMDA and the AMPA binding assays was 10 minutes, for the kainate binding assay 60 minutes and for the sodium-dependent glutamate binding assay 15 minutes. The AMPA binding assay contained 100 mM KSCN and the sodium-dependent glutamate binding assay contained 150 mM sodium acetate in addition to the previously described reagents. To terminate the incubation, the samples were centrifuged for 15 minutes at 12,000 g and 4° C. in a Beckman Microfuge 12. The supernatant was aspirated and the pelleted membranes dissolved in Beckman BTS-450 tissue solubilizer for a minimum of 6 hours at room temperature. Beckman MP scintillation cocktail containing 7 mL/l acetic acid was then added and the samples counted on a Beckman LS 5800 or 3801 liquid scintillation counter with automatic corrections for quenching and counting efficiency. Nonspecific binding was defined as the residual binding in the presence of either excess L-glutamate (0.1-0.4 mM), kainate (0.01 mM), or NMDA (0.5 mM), and was 15-25% of the total binding in the NMDA binding assay, 19-27% in the AMPA binding assay, 20-30% in the kainate binding assay and 10-15% in the sodium-dependent binding assay. Radioligand binding to the synaptic plasma membranes was analyzed using Scatchard and Hill transformations and the Ki values of the compounds determined using logit-log transformations. Calculations and regression analysis were performed using templates developed for Lotus 1, 2, 3 as previously described [Pullan, L. M. "Automated Radioligand Receptor Binding Analysis with Templates for Lotus", Computer Appln. Biosci., 3, 131 (1987)]. Binding results are reported in Table I for example compounds of the invention.

[3] = tested on: Mongolian gerbils, CA1 region of the hippocampus; assay: Forebrain ischemia assay (bilateral carotid occlusion, CA1 hippocampal neuron count); format: in vivo, Mongolian gerbil; settings: vs control, Mann-Whitney U test
Procedure: This assay was used to determine the extent of protection afforded by compound of the invention to neural brain cells subjected to ischemic conditions. Male Mongolian gerbils, 50-70 gm, were used as subjects. Compound No. 7 (30 mg/kg) was injected i.p. 30 minutes prior to carotid occlusion into 6 gerbils […]. In preparation for surgical procedures, the animals were lightly anesthetized with methoxyflurane and placed upside down on a heated pad with their snout within a nosecone. A 70:30 mixture of nitrous oxide and oxygen containing 0.5% halothane was circulated through the nosecone to provide continuous anesthesia throughout the surgical procedure. A midline incision was made in the neck and the carotid arteries were exposed. A length of suture thread was placed under each carotid. […] Quantification of the resulting lesion is made by counting the pyramidal cell somata in a 0.5 mm length of CAl of the hippocampus on the section corresponding to P 1.7 mm in the gerbil brain atlas.
Normal cell count in this region of the hippocampus in unoperated gerbils is 146±2. The effects of compound of Ex. #7 were assessed by comparing the number of neural cells found in the hippocampus of subjects treated with Ex. #7 compound with the cell number found in the appropriate control groups. […]

[4] = tested on: mice (tonic hindlimb extensor seizures); assay: Anticonvulsant assay (electroconvulsive shock, tonic hindlimb extensor seizures); format: in vivo, mouse (CD-1); settings: s.c., 30 min prior to ECS
Description: (§1) 6, 351-353 (1977)]. […] The screens were then slowly inverted. […] The current was held constant at 15 mA. […] There were 10 mice in each treatment group.

[5] = tested on: mice (motor function); assay: Inverted screen test for motor impairment; format: in vivo, mouse (CD-1)
Description: as §1

[6] = tested on: cGMP levels in cerebellum; assay: Effect on cGMP levels in cerebellum; format: in vivo, mouse (Swiss-Webster); settings: s.c.
Procedure: The purpose of this assay is to determine the extent of in vivo bioavailability and the potency as an NMDA antagonist of compound of the invention as compared to known NMDA antagonists, namely, 3(2-carboxypiperizine-4-yl)propyl-1-phosphonic acid (CPP~ and cis-4-phosphonomethyl-2-piperidinecarboxylic acid (CGS 19755). Male Swiss-Webster mice (17-24 g were injected sub-cutaneously (s.c.) with compound of the invention and the known NMDA antagonist standards 30 minutes prior to sacrifice by focussed microwave irradiation. Groups consisted of 7-10 mice. Compounds of Ex. #7 was dissolved in isotonic saline and all compounds were administered in a volume of 0.2 ml per mouse. Cerebella samples were extracted in IN HCl. Hydrochloric acid in extracts of the cerebellum were freeze-dried for assay of cGMP with a commercial RIA kit (NEN). Statistics (Dunett's t-test) were performed as described previously [P. L. Wood et al., Neurochem, 19, 975-982 (1980)]. ED50 values were calculated from log-logit transformation of the dose-response data.

[7] = tested on: TCP (1-[1-(2-thienyl)cyclohexyl]piperidine) binding in rat brain synaptic membranes; assay: TCP modulation assay ([3H]TCP binding); settings: printed in the column TCP Ki IC50
Procedure: The effect on the TCP (1-[1-(2-thienyl)cyclohexyl]piperidine) binding was measured in rat brain synaptic membranes (SPM) prepared as previously described [J. B. Monahan & J. Michel; J. Neurochem. 48:1699-1708 (1987)]. Prior to their use in the binding assay, frozen SPM were thawed, diluted twenty fold with 50 mM Tris/acetate (pH 7.4 containing 0.04% (v/v) Triton X-100), incubated for 30 min. at 37° C. and centrifuged at 95,000×g for 15 min. The Triton X-100 treated SPM were washed with 5 mM Tris/HCl, pH 7.4 and centrifuged a total of six times. The compound of Example #7 was incubated at different concentrations with SPM (0.2-0.4 mg protein) and 2 nM tritiated TCP, in a total volume of 0.5 ml of 5 mM Tris/HCl buffer pH 7.4 at 25° C. for 60 min. The samples were filtered through glass fiber filters (Schleicher & Schuell #32) which have been pretreated with 0.05% (v/v) polyethylenimine, washed 4 times with 2 ml of ice-cold 5 mM Tris/HCl buffer, and then counted on a Beckman LS 5800 liquid scintillation counter with automatic corrections for quenching and counting efficiency. Inhibition of TCP binding was measured as a decrease in the binding in the presence of 0.05 mM L-glutamate. Non-specific binding was defined as the residual binding in the presence of […] phencyclidine.

Structure (SMILES): O=C(O)C1CN(CCCP(=O)(O)O)CCN1 (stereo not drawn) [CPP, 3-(2-carboxypiperazin-4-yl)propyl-1phosphonic acid]
NMDA antagonism, in words [1]: potent and selective NMDA antagonist

Structure (SMILES): O=C(O)c1cn2c(CP(=O)(O)O)cccc2n1 [Example 7, 5-(phosphonomethyl)imidazo[1,2-a]pyridine-2-carboxylic acid]
Ki [2]: > 300 µM | hippocampal cell loss after ischemia, in words [3]: significantly reduced | protection against tonic hindlimb extensor seizures, in words [4]: protected against tonic hindlimb extensor seizures in a dose-dependent fashion | Exhibiting Motor Impairments ([5]; 10 mg/kg s.c.): 30 % of Mice | Exhibiting Motor Impairments ([5]; 32 mg/kg s.c.): 50 % of Mice | Exhibiting Motor Impairments ([5]; 56 mg/kg s.c.): 70 % of Mice | Exhibiting Motor Impairments ([5]; 100 mg/kg s.c.): 90 % of Mice | impairment of motor function, in words ([5]; s.c., inverted screen): impaired motor function in a similar dose range | brain bioavailability (decrease of cGMP in mouse cerebellum), in words [6]: brain bioavailable | potency compared with CPP, in words ([6]; decrease in cerebellar cGMP): in the same range of potency as the known NMDA antagonist CPP

Ki [2]: > 300 µM
Structure (SMILES): O=C(O)c1cn2cc(CP(=O)(O)O)ccc2n1 [Example 13, 6-(phosphonomethyl)imidazo[1,2-a]pyridine-2-carboxylic acid]

Ki [2]: > 300 µM
Structure (SMILES): O=C(O)c1cn2ccc(CP(=O)(O)O)cc2n1 [Example 18, 7-(phosphonomethyl)imidazo[1,2-a]pyridine-2-carboxylic acid]

Ki [2]: > 300 µM
Structure (SMILES): O=C(O)c1cn2cccc(CP(=O)(O)O)c2n1 [Example 23, 8-(phosphonomethyl)imidazo[1,2-a]pyridine-2-carboxylic acid]

Ki [2]: > 300 µM
Structure (SMILES): O=C(O)c1cn2c(CP(=O)(O)O)c(Cl)ccc2n1 [Example 30, 6-chloro-5-(phosphonomethyl)imidazo[1,2-a]pyridine-2-carboxylic acid]

Ki [2]: > 300 µM | TCP binding, result in words [7]: antag.
Structure (SMILES): O=C(O)c1cn2c(C(O)P(=O)(O)O)cccc2n1 (stereo not drawn) [Example 57, 5-(hydroxyphosphonomethyl)imidazo[1,2-a]pyridine-2-carboxylic acid, monohydrochloride]

Structure (SMILES): Cc1c(C(=O)O)nc2c(CP(=O)(O)O)cccn12 [Example 67, 3-methyl-8-(phosphonomethyl)imidazo[1,2-a]pyridine-2-carboxylic acid, monohydrochloride]
Ki [2]: > 300 µM
